29 compounds from patent publication US20130116263A1, “PAK INHIBITORS FOR THE TREATMENT OF CELL PROLIFERATIVE DISORDERS” (AFRAXIS, INC., priority 2011, published 2013) can be followed below.

What all share (format): biochemical
In one assay the target is PAK1 (Homo sapiens, UniProt Q13153). Kind of assay: In vitro PAK inhibition assay (Z'-LYTE, SelectScreen), PAK1. To be noted: read-out: PAK1 IC50. The protocol:
(§1) Compounds are screened in 1% DMSO (final) in the well. For 10 point titrations, 3-fold serial dilutions are conducted. All Peptide/Kinase Mixtures are diluted to a 2× working concentration in the appropriate Kinase Buffer
The 2×PAK1/Ser/Thr 19 mixture is prepared in 50 mM HEPES pH 7.5, 0.01% BRIJ-35, 10 mM MgCl2, 1 mM EGTA.
(§2) 1. Add the following solutions to a well in a 384-well plate: • 2.5 μL of 4× Test Compound OR (100 nL 100× Test Compound plus 2.4 μL kinase buffer) • 5 μL of 2× Peptide/Kinase (PAK) Mixture • 2.5 μL of 4×ATP Solution
(§3) 3. Incubate the PAK Kinase Reaction at room temperature for 60-minutes
(§4) 4. Add 5 μL of Development Reagent Solution to each well
(§5) 6. Incubate the Development Reaction for 60-minutes
(§6) 7. Determine the fluorescence using a fluorescence plate reader
(§7) SelectScreen® Kinase Profiling Service uses XLfit from IDBS.
(§8) The representative IC50 value with a known inhibitor for each kinase was determined at the ATP bin nearest to the ATP Km app.

The next assay concerns the target PAK2 (PAK65) (Homo sapiens, UniProt Q13177). The assay is described as follows: In vitro PAK inhibition assay (Z'-LYTE, SelectScreen), PAK2. To be noted: read-out: PAK2 IC50. The protocol: as §1
The 2×PAK2 (PAK65)/Ser/Thr 20 mixture is prepared in 50 mM HEPES pH 7.5, 0.01% BRIJ-35, 10 mM MgCl2, 1 mM EGTA. The final 10 μL Kinase Reaction consists of 0.29-6 ng PAK2 (PAK65) and 2 μM Ser/Thr 20 in 50 mM HEPES pH 7.5, 0.01% BRIJ-35, 10 mM MgCl2, 1 mM EGTA.
as §2, §3, §4, §5, §6, §7, §8

The next assay deals with PAK3 (Homo sapiens, UniProt O75914). The assay is described as follows: In vitro PAK inhibition assay (Z'-LYTE, SelectScreen), PAK3. As to conditions: read-out: PAK3 IC50. On the procedure:
as §1
The 2×PAK3/Ser/Thr 20 mixture is prepared in 50 mM HEPES pH 7.5, 0.01% BRIJ-35, 10 mM MgCl2, 1 mM EGTA.
as §2, §3, §4, §5, §6, §7, §8

The next assay addresses PAK4 (Homo sapiens, UniProt O96013). Kind of assay: In vitro PAK inhibition assay (Z'-LYTE, SelectScreen), PAK4. On the procedure: as §1
The 2×PAK-4/Ser/Thr 20 mixture is prepared in 50 mM HEPES pH 7.5, 0.01% BRIJ-35, 10 mM MgCl2, 1 mM EGTA. The final 10 μL Kinase Reaction consists of 0.1-0.75 ng PAK-4 and 2 μM Ser/Thr 20 in 50 mM HEPES pH 7.5, 0.01% BRIJ-35, 10 mM MgCl2, 1 mM EGTA. After the 1 hour Kinase Reaction incubation, 5 μL of a 1:256 dilution of Development Reagent A is added.
as §2, §3, §4, §5, §6
SelectScreen® Kinase Profiling Service uses XLfit from IDBS. The dose response curve is curve fit to model number 205 (sigmoidal dose-response model).
The table below provides specifications and data around each kinase. The representative IC50 value with a known inhibitor for each kinase was determined at the ATP bin nearest to the ATP Km app.

Chain of PAK1 (Q13153 whole entry): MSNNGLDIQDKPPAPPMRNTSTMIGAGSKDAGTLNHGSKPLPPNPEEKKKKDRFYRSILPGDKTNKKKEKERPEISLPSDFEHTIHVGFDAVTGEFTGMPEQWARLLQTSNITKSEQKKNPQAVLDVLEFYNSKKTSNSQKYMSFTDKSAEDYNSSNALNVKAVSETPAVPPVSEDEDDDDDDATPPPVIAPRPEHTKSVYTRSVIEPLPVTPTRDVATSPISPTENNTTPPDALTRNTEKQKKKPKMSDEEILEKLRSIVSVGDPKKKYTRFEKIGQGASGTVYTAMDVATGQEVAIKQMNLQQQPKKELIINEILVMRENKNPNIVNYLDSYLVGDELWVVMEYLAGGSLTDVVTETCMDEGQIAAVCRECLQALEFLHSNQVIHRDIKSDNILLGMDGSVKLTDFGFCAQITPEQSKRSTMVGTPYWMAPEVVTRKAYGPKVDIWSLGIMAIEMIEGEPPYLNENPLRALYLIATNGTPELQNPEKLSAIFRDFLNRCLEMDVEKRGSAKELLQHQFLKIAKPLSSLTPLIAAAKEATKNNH
Chain of PAK3 (O75914 1-544 isoform O75914-2): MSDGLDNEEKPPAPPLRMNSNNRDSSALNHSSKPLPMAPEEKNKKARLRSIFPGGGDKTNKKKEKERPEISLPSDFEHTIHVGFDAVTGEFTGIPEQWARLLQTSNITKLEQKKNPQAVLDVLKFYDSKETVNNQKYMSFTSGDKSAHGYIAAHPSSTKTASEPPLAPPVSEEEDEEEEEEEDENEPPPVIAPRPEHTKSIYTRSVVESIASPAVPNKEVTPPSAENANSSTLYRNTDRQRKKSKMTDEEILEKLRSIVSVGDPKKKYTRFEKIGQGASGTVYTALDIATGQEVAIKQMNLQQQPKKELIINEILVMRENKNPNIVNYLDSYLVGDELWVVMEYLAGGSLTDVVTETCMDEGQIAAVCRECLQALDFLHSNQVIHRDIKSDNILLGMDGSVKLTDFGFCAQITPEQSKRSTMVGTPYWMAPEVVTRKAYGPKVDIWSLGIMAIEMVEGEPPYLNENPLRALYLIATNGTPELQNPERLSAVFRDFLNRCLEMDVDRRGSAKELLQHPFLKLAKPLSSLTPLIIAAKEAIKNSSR
Chain of PAK2 (PAK65) (Q13177 whole entry): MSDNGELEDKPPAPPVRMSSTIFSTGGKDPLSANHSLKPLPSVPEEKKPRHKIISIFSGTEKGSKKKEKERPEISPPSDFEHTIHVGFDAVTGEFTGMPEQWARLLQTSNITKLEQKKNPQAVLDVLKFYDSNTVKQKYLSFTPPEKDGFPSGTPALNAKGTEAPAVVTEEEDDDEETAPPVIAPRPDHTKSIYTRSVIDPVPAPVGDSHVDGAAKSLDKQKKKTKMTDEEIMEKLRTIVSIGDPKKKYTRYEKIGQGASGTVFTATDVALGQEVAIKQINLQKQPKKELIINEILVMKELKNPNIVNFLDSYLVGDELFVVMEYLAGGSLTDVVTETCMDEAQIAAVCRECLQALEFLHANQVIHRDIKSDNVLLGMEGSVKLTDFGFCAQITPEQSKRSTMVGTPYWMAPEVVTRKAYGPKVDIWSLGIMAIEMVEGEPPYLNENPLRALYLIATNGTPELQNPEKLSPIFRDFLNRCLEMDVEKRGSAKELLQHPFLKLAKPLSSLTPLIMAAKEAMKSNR
Chain of PAK4 (O96013 whole entry): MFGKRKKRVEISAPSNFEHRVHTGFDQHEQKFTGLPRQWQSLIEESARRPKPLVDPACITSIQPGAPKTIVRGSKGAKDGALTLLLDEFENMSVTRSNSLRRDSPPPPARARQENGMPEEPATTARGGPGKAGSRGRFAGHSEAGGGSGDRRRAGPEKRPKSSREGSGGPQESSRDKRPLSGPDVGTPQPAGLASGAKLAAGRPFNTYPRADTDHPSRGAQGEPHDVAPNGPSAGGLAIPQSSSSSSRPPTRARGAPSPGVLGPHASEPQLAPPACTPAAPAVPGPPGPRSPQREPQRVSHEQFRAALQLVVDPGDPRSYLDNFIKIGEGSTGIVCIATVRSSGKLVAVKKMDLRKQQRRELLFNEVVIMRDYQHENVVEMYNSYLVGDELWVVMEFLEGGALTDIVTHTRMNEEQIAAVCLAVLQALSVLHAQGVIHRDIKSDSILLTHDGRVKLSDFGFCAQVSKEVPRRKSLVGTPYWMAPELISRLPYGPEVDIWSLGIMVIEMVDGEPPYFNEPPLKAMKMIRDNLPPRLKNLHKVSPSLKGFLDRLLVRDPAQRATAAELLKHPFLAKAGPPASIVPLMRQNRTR

As a reminder, the IC50 is the concentration that inhibits the measured activity by half. Take `CCn1c(=O)c(-c2ccc(-c3nccnc3C)cc2Cl)cc2cnc(N[C@@H]3CCOC3)nc21` [Example 58]: the IC50 is 50 to 500 nM at PAK1, 50 to 500 nM at PAK2 (PAK65), 500 to 5000 nM at PAK3 and above 5000 nM against PAK4.

With `CCn1c(=O)c(-c2ccc(-c3nccnc3C)cc2Cl)cc2cnc(NC3CCCCC3)nc21` [Example 3], the 50% inhibitory concentration (IC50) at PAK1 is above 5000 nM; at PAK2 (PAK65) it was 500 to 5000 nM; at PAK3 it was above 5000 nM; against PAK4, above 5000 nM.

For `CCn1c(=O)c(-c2ccc(-c3cncc(C)n3)cc2Cl)cc2cnc(NC3CCC(CCN(C)C)CC3)nc21` (centres unmarked) [Example 70], the IC50 at PAK1 is below 50 nM; on PAK2 (PAK65), below 50 nM; at PAK3 it was 50 to 500 nM; against PAK4, above 5000 nM.

Regarding `CCn1c(=O)c(-c2ccc(-c3ccnnc3)cc2Cl)cc2cnc(N[C@@H]3CCOC3)nc21` [Example 62], the IC50 on PAK1, at PAK2 (PAK65), at PAK3 and at PAK4 was above 5000 nM each time.

As to `CCn1c(=O)c(-c2ccc(-c3ccncc3)cc2Cl)cc2cnc(NC3CCOCC3)nc21` [Example 43], the IC50 on PAK1 was 500 to 5000 nM; at PAK2 (PAK65) it was 500 to 5000 nM; at PAK3 it was above 5000 nM; against PAK4, above 5000 nM.

For the compound `CCn1c(=O)c(-c2ccc(-c3nccnc3C)cc2Cl)cc2cnc(NC3CCN(C)C3)nc21` (centres unmarked) [Example 78, 6-(2-chloro-4-(3-methylpyrazin-2-yl)phenyl)-8-ethyl-2-((1-methylpyrrolidin-3-yl)amino)pyrido[2,3-d]pyrimidin-7(8H)-one], the IC50 on PAK1 is 50 to 500 nM; at PAK2 (PAK65), 50 to 500 nM; at PAK3 it was 500 to 5000 nM; against PAK4, above 5000 nM.

Consider `CCn1c(=O)c(-c2ccc(-c3cncc(C)n3)cc2Cl)cc2cnc(NCCCC3CCN(C)CC3)nc21` [Example 68], for which the IC50 on PAK1 was 50 to 500 nM; on PAK2 (PAK65), 50 to 500 nM; at PAK3, 50 to 500 nM; on PAK4, above 5000 nM.

For `CCn1c(=O)c(-c2ccc(-c3cncc(C)n3)cc2Cl)cc2cnc(NCCCOCCCN(C)C)nc21` [Example 130], the IC50 was 50 to 500 nM on PAK1, 50 to 500 nM on PAK2 (PAK65), 50 to 500 nM on PAK3 and above 5000 nM against PAK4.

Consider `COCCn1c(=O)c(-c2ccc(-c3cnccn3)cc2Cl)cc2cnc(NC3CCOC3)nc21` (centres unmarked) [Example 53], for which the IC50 at PAK1 is 50 to 500 nM; at PAK2 (PAK65), 50 to 500 nM; at PAK3, 500 to 5000 nM; at PAK4, above 5000 nM.

`CCn1c(=O)c(-c2ccc(-c3cncc(C)c3)cc2Cl)cc2cnc(N[C@@H]3CCOC3)nc21` [Example 61]: the IC50 at PAK1 is 50 to 500 nM; on PAK2 (PAK65), 50 to 500 nM; at PAK3 it was 500 to 5000 nM; on PAK4, above 5000 nM.

In the case of `Cc1cncc(-c2ccc(-c3cc4cnc(NCC(C)C)nc4n([C@H]4CC[C@H](N)CC4)c3=O)c(Cl)c2)n1` [Example 115], the IC50 on PAK1 is below 50 nM; at PAK2 (PAK65), below 50 nM; on PAK3 it was below 50 nM; at PAK4 it was 500 to 5000 nM.

Consider `Cc1nccnc1-c1ccc(-c2cc3cnc(NC4CCOCC4)nc3n(Cc3ccccc3)c2=O)c(Cl)c1` [Example 16], for which the IC50 is below 50 nM at PAK1, below 50 nM on PAK2 (PAK65), 50 to 500 nM at PAK3 and above 5000 nM against PAK4.

Regarding `Cc1nccnc1-c1ccc(-c2cc3cnc(N[C@@H]4CCOC4)nc3n(Cc3cccnc3)c2=O)c(Cl)c1` [Example 122, (R)-6-(2-chloro-4-(3-methylpyrazin-2-yl)phenyl)-8-(pyridin-3-ylmethyl)-2-((tetrahydrofuran-3-yl)amino)pyrido[2,3-d]pyrimidin-7(8H)-one], the IC50 on PAK1 was 50 to 500 nM; at PAK2 (PAK65) it was below 50 nM; at PAK3, 50 to 500 nM; against PAK4, above 5000 nM.

Turning to `CCn1c(=O)c(-c2ccc(-c3nccnc3C)cc2Cl)cc2cnc(NC3CC[S+]([O-])CC3)nc21` (centres unmarked) [Example 74], the IC50 is 50 to 500 nM on PAK1, 50 to 500 nM at PAK2 (PAK65), 500 to 5000 nM at PAK3 and above 5000 nM at PAK4.

In the case of `CCn1c(=O)c(-c2ccc(-c3cncc(C)n3)cc2Cl)cc2cnc(NC3C[C@@H](C)O[C@@H](C)C3)nc21` (some centres unmarked) [Example 37], the IC50 on PAK1 was below 50 nM; at PAK2 (PAK65), 50 to 500 nM; at PAK3 it was 50 to 500 nM; against PAK4, above 5000 nM.

Turning to `CCn1c(=O)c(-c2ccc(-c3cccnc3F)cc2Cl)cc2cnc(NC3CCOC3)nc21` (centres unmarked) [Example 39], the IC50 is 50 to 500 nM on PAK1, 50 to 500 nM at PAK2 (PAK65), 50 to 500 nM at PAK3 and above 5000 nM on PAK4.

Regarding `COCCCn1c(=O)c(-c2ccc(-c3cncc(C)n3)cc2Cl)cc2cnc(N[C@@H]3CCOC3)nc21` [Example 64], the IC50 on PAK1 is below 50 nM; on PAK2 (PAK65), below 50 nM; on PAK3, 50 to 500 nM; against PAK4, above 5000 nM.

As for `Cc1cncc(-c2ccc(-c3cc4cnc(N[C@H]5CCOC5)nc4n(C4CCNCC4)c3=O)c(Cl)c2)n1` [Example 106], the IC50 on PAK1 is 50 to 500 nM; at PAK2 (PAK65) it was 50 to 500 nM; on PAK3, 50 to 500 nM; against PAK4, above 5000 nM.

On to `CCn1c(=O)c(-c2ccc(-c3nccnc3C)cc2Cl)cc2cnc(NC3CCNC(=O)C3)nc21` (centres unmarked) [Example 33], for which the IC50 on PAK1 was 50 to 500 nM; on PAK2 (PAK65) it was below 50 nM; on PAK3, 50 to 500 nM; against PAK4, above 5000 nM.

For the compound `Cc1nccnc1-c1ccc(-c2cc3cnc(NC4CCOCC4)nc3n(Cc3ccccc3C(F)(F)F)c2=O)c(Cl)c1` [Example 21], the IC50 was below 50 nM at PAK1, below 50 nM at PAK2 (PAK65), below 50 nM at PAK3 and above 5000 nM against PAK4.

As to `Cc1cncc(-c2ccc(-c3cc4cnc(NC5CCCC5)nc4n([C@H]4CC[C@H](N)CC4)c3=O)c(Cl)c2)n1` [Example 118], the IC50 at PAK1 was below 50 nM; on PAK2 (PAK65) it was below 50 nM; at PAK3, below 50 nM; at PAK4, 500 to 5000 nM.

Take `Cc1cncc(-c2ccc(-c3cc4cnc(N[C@@H]5CCOC5)nc4n(CCN)c3=O)c(Cl)c2)n1` [Example 99]: the IC50 at PAK1 is below 50 nM; at PAK2 (PAK65), below 50 nM; on PAK3, 50 to 500 nM; at PAK4, above 5000 nM.

As to `Cc1cncc(-c2ccc(-c3cc4cnc(NC5CCOCC5)nc4n(Cc4ccccc4)c3=O)c(Cl)c2)n1` [Example 34], the IC50 at PAK1 is 50 to 500 nM; on PAK2 (PAK65) it was below 50 nM; at PAK3 it was 50 to 500 nM; at PAK4, above 5000 nM.

Take `CCn1c(=O)c(-c2ccc(-c3nccnc3C)cc2Cl)cc2cnc(NC3CCNCC3)nc21` [Example 79]: the IC50 at PAK1 was 500 to 5000 nM; on PAK2 (PAK65), 500 to 5000 nM; at PAK3 it was 500 to 5000 nM; against PAK4 it was above 5000 nM.

On to `CCn1c(=O)c(-c2ccc(-c3cncc(C)n3)cc2Cl)cc2cnc(NCC3CCC(N)CC3)nc21` (centres unmarked) [Example 131], for which the IC50 on PAK1 was below 50 nM; on PAK2 (PAK65), below 50 nM; on PAK3, 50 to 500 nM; against PAK4, above 5000 nM.

For `CCn1c(=O)c(-c2ccc(-c3cccnc3F)cc2Cl)cc2cnc(N[C@@H]3CCOC3)nc21` [Example 40], the IC50 at PAK1 was below 50 nM; at PAK2 (PAK65), 50 to 500 nM; at PAK3, 50 to 500 nM; against PAK4 it was above 5000 nM.

Take `CCn1c(=O)c(-c2ccc(-c3cncc(C)n3)cc2Cl)cc2cnc(NC3CCOC3)nc21` (centres unmarked) [Example 29]: the IC50 at PAK1 was 50 to 500 nM; at PAK2 (PAK65), below 50 nM; on PAK3, 50 to 500 nM; against PAK4, above 5000 nM.

For `CCn1c(=O)c(-c2ccc(-c3cncc(C)n3)cc2Cl)cc2cnc(NCCCOCCCN)nc21` [Example 129], the IC50 was below 50 nM on PAK1, below 50 nM at PAK2 (PAK65), 50 to 500 nM on PAK3 and above 5000 nM against PAK4.

Take `CCn1c(=O)c(-c2ccc(-c3nccnc3C)cc2Cl)cc2cnc(NC3CCOC3)nc21` (centres unmarked) [Example 15]: the IC50 at PAK1 was 50 to 500 nM; at PAK2 (PAK65), 50 to 500 nM; on PAK3, 50 to 500 nM; on PAK4, above 5000 nM.
